From patent US9403812B2, “Triazole derivatives as Wnt signaling pathway inhibitors” (OSLO UNIVERSITY HOSPITAL, HF, priority 2010, dated 2016)

Experiments:
STF/REN HEK293 cells = experiment: Wnt3a-induced ST-Luc/Renilla luciferase reporter assay in STF/REN HEK293 cells; type: cell-based; conditions: Homo sapiens, 24 hours compound in 50% Wnt3a conditioned media, average of multiple experiments
Protocol: HEK293 cells (80,000 cells per well) were seeded in 96-well plates coated with poly-L lysine. 24 hours after seeding, the cells were incubated for an additional 24 hours with various compound concentrations in 50% Wnt3a containing conditioned media (from L Wnt3a-expressing cells (ATCC)). A minimum of three replicates was used for each sample. After compound exposure, the cells were lysed and the firefly luciferase and Renilla activities were measured on a GloMax® 96 Microplate Luminometer with Dual Injectors (Promega).
XLfit (idbs) was used to determine the IC50 values in inhibition experiments. The data were fit to the following formula:
IC50: Langmuir Binding Isotherm: fit=((A+(B*x))+(((C−B)*(1−exp((−1*D)*x)))/D)) res=(y−fit)
All values shown are average values from multiple experiments.

[1] = Stability in human liver microsomes; type: in vitro ADME; conditions: both sexes, pooled human liver microsomes, 0.5 mg/mL protein, 3 μM compound, pH 7.4, 37° C., NADPH, read-out: T ½ human liver microsomes
Protocol: Pooled human or rat liver microsomes (pooled male and female) were prepared and stored at −80° C. prior to use. […] The final incubation volume was 25 μL. A control incubation was included for each compound tested in which 0.1M phosphate buffer (pH 7.4) was added instead of NADPH (minus NADPH). Two control compounds were included with each species. All incubations were performed singularly for each test compound.
The reactions were stopped by the addition of 50 μL methanol containing internal standard at the appropriate time points. The incubation plates were centrifuged at 2,500 rpm for 20 mins at 4° C. to precipitate the protein.
Following protein precipitation, the sample supernatants were combined in cassettes of up to 4 compounds and analysed using Cyprotex generic LC-MS/MS conditions. […] The time point at which 30-50% of parent had degraded could then be investigated at 3 different levels of metabolite profiling and/or identification.
From a plot of ln peak area ratio (compound peak area/internal standard peak area) against time, the gradient of the line is determined. Subsequently, half-life and intrinsic clearance are calculated using the equations below: Elimination rate constant (k)=(−gradient)
[formula] [formula] • where V=Incubation volume (μL/mg microsomal protein).

HT29 cells = experiment: IncuCyte cell proliferation assay, HT29; type: cell-based; conditions: 0.1, 1, 5 μmol/L
Protocol: (§1) All cells were purchased from ATCC (American Type Culture Collection) and maintained according to the supplier's recommendations. Cells used were RKO, HCT-15, WiDr, HT29, DLD-1, COLO320DM and COLO205 cells. 1,000 cells were seeded in 96-well plates with the recommended media. […] All samples were assessed in a minimum of six replicates. Plates were incubated in an IncuCyte™ (Essen BioScience) inside a cell culture incubator. Images were captured every second hour to monitor cell proliferation. Mutations in the Adenomatouse Polyposis Coli (APC) gene, which occur in most colorectal cancers (CRC), lead to ineffective degradation of β-catenin and aberrant up-regulation of Wnt signaling. As a result, CRC cells may undergo cell cycle arrest as a result of antagonized canonical Wnt. Therefore, the kinetics of cell proliferation was monitored in selected Wnt responsive CRC cell lines by using an IncuCyte life tracking system.

AXIN2 = experiment: Immunostaining of AXIN2 in SW480 cells; type: cell-based; conditions: 0.5 μmol/L, 18 hours, confocal microscopy
Protocol: (§2) After incubation, the cells were fixed in 4% PFA in PBS for 10 minutes. Immunostaining was performed as described in standard protocols. Primary antibodies used were β-catenin (610153, BD Transduction Laboratories™) or AXIN2 (76G6, Cell Signaling Technology). Secondary antibodies used were DyLight549 (555) donkey-anti-mouse and Cy2-donkey-anti-rabbit (both Jackson ImmunoResearch, 1:1000). The samples were imaged using a Zeiss Axiovert 200M Fluorescence/Live cell Imaging Microscope at 40 times magnification. A Zeiss LSM780 at 63 times magnification was used for confocal microscopy

PARP1 = target: T1, PARP1 (Homo sapiens, UniProt P09874); experiment: Chemiluminescent Assay Kit, PARP1; type: biochemical
T1 construct: purchased BPS Bioscience, Nordic Biosite 80551
T1 sequence (P09874 whole entry): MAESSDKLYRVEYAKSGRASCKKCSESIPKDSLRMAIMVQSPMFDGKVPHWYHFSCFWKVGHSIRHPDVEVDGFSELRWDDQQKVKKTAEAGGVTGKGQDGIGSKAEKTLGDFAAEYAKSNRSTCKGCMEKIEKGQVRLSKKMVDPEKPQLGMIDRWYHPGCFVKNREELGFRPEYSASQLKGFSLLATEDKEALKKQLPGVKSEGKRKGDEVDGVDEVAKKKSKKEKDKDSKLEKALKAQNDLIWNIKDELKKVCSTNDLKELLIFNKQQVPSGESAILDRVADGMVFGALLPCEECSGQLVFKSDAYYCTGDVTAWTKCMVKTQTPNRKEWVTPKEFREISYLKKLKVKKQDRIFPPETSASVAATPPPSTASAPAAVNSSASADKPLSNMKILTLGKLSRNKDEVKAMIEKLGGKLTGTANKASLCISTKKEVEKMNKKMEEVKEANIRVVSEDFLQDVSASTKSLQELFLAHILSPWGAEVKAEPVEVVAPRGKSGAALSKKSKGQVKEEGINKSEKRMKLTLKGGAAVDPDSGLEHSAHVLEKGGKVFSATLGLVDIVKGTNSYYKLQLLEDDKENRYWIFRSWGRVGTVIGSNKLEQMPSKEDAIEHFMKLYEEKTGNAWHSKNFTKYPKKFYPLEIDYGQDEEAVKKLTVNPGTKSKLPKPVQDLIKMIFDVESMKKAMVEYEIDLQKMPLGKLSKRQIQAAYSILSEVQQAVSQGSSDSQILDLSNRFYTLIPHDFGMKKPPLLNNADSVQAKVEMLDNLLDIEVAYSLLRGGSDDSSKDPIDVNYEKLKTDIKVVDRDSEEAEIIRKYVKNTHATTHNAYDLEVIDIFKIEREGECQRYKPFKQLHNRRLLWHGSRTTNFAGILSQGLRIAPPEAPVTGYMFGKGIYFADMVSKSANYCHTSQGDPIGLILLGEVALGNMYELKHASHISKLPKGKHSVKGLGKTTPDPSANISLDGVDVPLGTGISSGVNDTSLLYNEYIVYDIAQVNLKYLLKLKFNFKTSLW

RKO cells = experiment: IncuCyte cell proliferation assay, RKO; type: cell-based; conditions: RKO (Wnt-independent control, wild type APC); 0.1, 1, 5 μmol/L
Protocol: as §1

WiDr cells = experiment: IncuCyte cell proliferation assay, WiDr; type: cell-based; conditions: 0.1, 1, 5 μmol/L
Protocol: as §1

COLO320DM cells = experiment: IncuCyte cell proliferation assay, COLO320DM; type: cell-based; conditions: 0.1, 1, 5 μmol/L
Protocol: as §1

COLO205 cells = experiment: IncuCyte cell proliferation assay, COLO205; type: cell-based; conditions: 0.1, 1, 5 μmol/L
Protocol: as §1

β-catenin = experiment: Immunostaining of β-catenin in SW480 cells; type: cell-based; conditions: 500 nmol/L, 18 hours, immunofluorescence
Protocol: as §2

HCT-15 cells = experiment: IncuCyte cell proliferation assay, HCT-15; type: cell-based; conditions: 0.1, 1, 5 μmol/L
Protocol: as §1

DLD-1 cells = experiment: IncuCyte cell proliferation assay, DLD-1; type: cell-based; conditions: 0.1, 1, 5 μmol/L
Protocol: as §1

Row | half-life at 3 μM [1] [min] | Compound | IC50 (STF/REN HEK293 cells) [nM] | other results
1 | 48 | COc1cc(-c2nnc(/C=C/c3nnc(-c4ccc(F)cc4)n3-c3ccccc3Cl)o2)ccn1 [(6)] | 1200 | 
2 |  | COc1cc(C(=O)NNC(=O)/C=C/c2nnc(-c3ccc(F)cc3)n2-c2ccccc2Cl)ccn1 [(7)] | > 10000 | 
3 | 128 | Oc1cc(-c2nnc(/C=C/c3nnc(-c4ccc(F)cc4)n3-c3ccccc3Cl)o2)ccn1 [(8)] | 6300 | 
4 | 162 | COc1cc(-c2nnc(/C=C/c3nnc(-c4ccc(Cl)cc4Cl)n3-c3ccccc3Cl)o2)ccn1 [Compound (1), 4-(5-((E)-2-(5-(2,4-dichlorophenyl)-4-(2-chlorophenyl)-4H-1,2,4-triazol-3-yl)vinyl)-1,3,4-oxadiazol-2-yl)-2-methoxypyridine] | 940 | 
5 | 224 | COc1cc(-c2nnc(/C=C/c3nnc(-c4ccc(S(C)(=O)=O)cc4)n3-c3ccccc3Cl)o2)ccn1 [Compound (2), 4-(5-((E)-2-(4-(2-chlorophenyl)-5-(4-(methylsulfonyl)phenyl)-4H-1,2,4-triazol-3-yl)vinyl)-1,3,4-oxadiazol-2-yl)-2-methoxypyridine] | 280 | 
6 | 37.6 | COc1cc(-c2nnc(/C=C/c3nnc(-c4ccncc4)n3-c3ccccc3Cl)o2)ccn1 [Compound (3), 4-(4-(2-chlorophenyl)-5-((E)-2-(5-(2-methoxypyridin-4-yl)-1,3,4-oxadiazol-2-yl)vinyl)-4H-1,2,4-triazol-3-yl)pyridine] | 190 | 
7 | 44.9 | COc1cc(-c2nnc(/C=C/c3nnc(-c4ccc(Cl)cn4)n3-c3ccccc3Cl)o2)ccn1 [Compound (4), 5-chloro-2-(4-(2-chlorophenyl)-5-((E)-2-(5-(2-methoxypyridin-4-yl)-1,3,4-oxadiazol-2-yl)vinyl)-4H-1,2,4-triazol-3-yl)pyridine] | 240 | 
8 | 5.41 | COc1cc(-c2nnc(/C=C/c3nnc(-c4nc(C)no4)n3-c3ccccc3Cl)o2)ccn1 [Compound (5), 4-(5-((E)-2-(4-(2-chlorophenyl)-5-(3-methyl-1,2,4-oxadiazol-5-yl)-4H-1,2,4-triazol-3-yl)vinyl)-1,3,4-oxadiazol-2-yl)-2-methoxypyridine] | > 10000 | 
9 |  | CS(=O)(=O)c1ccc(-c2nnc(/C=C/c3nnc(-c4ccc(C#N)cc4)o3)n2-c2ccccc2Cl)nc1 [Compound (10), (E)-4-(5-(2-(4-(2-chlorophenyl)-5-(5-(methylsulfonyl)pyridin-2-yl)-4H-1,2,4-triazol-3-yl)vinyl)-1,3,4-oxadiazol-2-yl)benzonitrile] | 50 | cell growth inhibition (HT29 cells): dose-dependent growth inhibition; levels of cytoplasmic AXIN2 (AXIN2): significantly increased; inhibition of PARP1 (PARP1; at doses up to 20 μmol/L): no inhibition; IC50 (PARP1; in vitro, table, read-out: IC50 value, PARP): > 20 µM; cell growth inhibition (RKO cells): did not; cell growth inhibition (WiDr cells): dose-dependent growth inhibition; cell growth inhibition (COLO320DM cells): dose-dependent growth inhibition; cell growth inhibition (COLO205 cells): dose-dependent growth inhibition; nuclear β-catenin (β-catenin): strong reduction; total β-catenin (β-catenin): general reduction; cell growth inhibition (HCT-15 cells): dose-dependent growth inhibition; cell growth inhibition (DLD-1 cells): dose-dependent growth inhibition
10 | 59.6 | COc1cc(-c2nnc(/C=C/c3nnc(-c4ccncn4)n3-c3ccccc3Cl)o2)ccn1 [Compound (11), 4-(4-(2-chlorophenyl)-5-((E)-2-(5-(2-methoxypyridin-4-yl)-1,3,4-oxadiazol-2-yl)vinyl)-4H-1,2,4-triazol-3-yl)pyrimidine] | 80 | 
11 | 37.1 | COc1cc(-c2nnc(/C=C/c3nnc(-c4ccc(S(C)(=O)=O)cn4)n3-c3ccccc3Cl)o2)ccn1 [Compound (12), 2-(4-(2-chlorophenyl)-5-((E)-2-(5-(2-methoxypyridin-4-yl)-1,3,4-oxadiazol-2-yl)vinyl)-4H-1,2,4-triazol-3-yl)-5-(methylsulfonyl)pyridine] | 70 | 
12 | 212 | CCOc1ccc(-c2nnc(/C=C/c3nnc(-c4ccnc(OC)c4)o3)n2-c2ccccc2Cl)nc1 [Compound (13), 2-(4-(2-chlorophenyl)-5-((E)-2-(5-(2-methoxypyridin-4-yl)-1,3,4-oxadiazol-2-yl)vinyl)-4H-1,2,4-triazol-3-yl)-5-ethoxypyridine] | 110 | 
13 | 371 | CS(=O)(=O)c1ccc(-c2nnc(/C=C/c3nnc(-c4ccc(Cl)cc4)o3)n2-c2ccccc2Cl)nc1 [Compound (14), 2-(4-(2-chlorophenyl)-5-((E)-2-(5-(4-chlorophenyl)-1,3,4-oxadiazol-2-yl)vinyl)-4H-1,2,4-triazol-3-yl)-5-(methylsulfonyl)pyridine] | 40 | 
14 |  | CS(=O)(=O)c1ccc(-c2nnc(C#Cc3nnc(-c4ccc(C#N)cc4)o3)n2-c2ccccc2Cl)nc1 [Compound (33), 4-{5-[4-(2-Chloro-phenyl)-5-(5-methanesulfonyl-pyridin-2-yl)-4H-[1,2,4]triazol-3-ylethynyl]-[1,3,4]oxadiazol-2-yl}-benzonitrile] | 3600 | 
15 |  | CS(=O)(=O)c1ccc(-c2nnc(/C=C/c3nnc(-c4ccc(C#N)cc4)o3)n2-c2ccc(OC(F)(F)F)cc2Cl)nc1 [Compound (56)] | 390 | 
16 |  | N#Cc1ccc(-c2nnc(/C=C/c3nnc(-c4ccc(OCC(F)(F)F)cn4)n3-c3ccccc3Cl)o2)cc1 [Compound (57), 4-[5-(2-{4-(2-Chloro-phenyl)-5-[5-(2,2,2-trifluoro-ethoxy)-pyridin-2-yl]-4H-[1,2,4]triazol-3-yl}-vinyl)-[1,3,4]oxadiazol-2-yl]-benzonitrile] | 100 | 
17 |  | CS(=O)(=O)c1ccc(-c2nnc(/C(F)=C(\F)c3nnc(-c4ccc(C#N)cc4)o3)n2-c2ccccc2Cl)nc1 [Compound (58), 4-(5-{2-[4-(2-Chloro-phenyl)-5-(5-methanesulfonyl-pyridin-2-yl)-4H-[1,2,4]triazol-3-yl]-1,2-difluoro-vinyl}-[1,3,4]oxadiazol-2-yl)-benzonitrile] | > 10000 | 
